{"source": "patent US8937050B2", "about": "“Methods and compositions for treatment of autism” (The Johns Hopkins University, priority 2011, dated 2015)", "key": {"[1]": {"system": "FL-SMN mRNA", "test": "RT-PCR of FL-SMN and total SMN mRNA in spinal muscular atrophy fibroblasts", "assay_type": "cell-based, human", "conditions": "effect of co-treatment with stress pathway inhibitor; FIG. 8B", "protocol": "Following the manufacturer's protocols, DNase I-treated cDNA was synthesized using Superscript III or Thermoscript reverse transcriptase (Invitrogen). PCR reactions were performed in duplicate on the Roche Lightcycler 3.5 (Basel, Switzerland) or the Bio-Rad iCycler (Hercules, Calif.) using Quantitech SYBR green PCR mix (Qiagen, Valencia, Calif.). GeNorm software calculated a normalization factor for each sample using the relative amounts of at least two of the following reference genes, β2-microglobulin, […], actin, and/or eukaryotic elongation factor 1A (Vandesompele et al., 2002). Primers for the various experiments described herein are listed below.\nType I and type III spinal muscular atrophy (SMA I or SMA III) fibroblasts were treated with SFN for the indicated times. The relative fold increase in the ratio of FL-SMN/total SMN transcripts compared with the untreated cell line (normalized to 1) is plotted. Cell lines from left to right are GM09677, GM00232 and 2906. N≧2 independent experiments.\nSpinal muscular atrophy fibroblasts were treated with 1.5 mM SFN alone for 51 hr. (SMA I, GM09677) or treated with 0.5 mM SFN for 8 hr. (SMA III, 2906) with or without […] SP600125 (JNK inhibitor), 2.5 mM 3-methyladenine (autophagy inhibitor, APG), […] antimycin A (mitochondrial inhibitor, MITO) or […] sirtinol (SIRT1 inhibitor). The fold increases in FL-SMN expression compared with either GAPDH or total SMN expression and the fold increase in total SMN expression compared with GAPDH expression after SFN treatment is plotted. Untreated values were normalized to 1 and are indicated by the horizontal line. (n=1 per cell line, performed in duplicate)\nTo determine which stress pathways are necessary for the increase in FL-SMN production, spinal muscular atrophy fibroblasts were co-treated with SFN and either SP600125, an inhibitor of the JNK pathway (Bennett et al., 2001), 3-methyladenine, an inhibitor of the autophagy pathway (Seglen et al., 1982), antimycin A, a mitochondrial inhibitor (Ranganathan et al., 2009), or sirtinol, an inhibitor of SIRT1 activity (Grozinger et al., 2001). […] SIRT1, an NAD+-dependent deacetylase, is known to regulate cellular stress responses, cellular metabolism and cellular survival (Salminen et al., 2009). Specifically, SIRT1 inhibition reduces the induction of HSR genes (Westerheide et al., 2009); SIRT1 activity enhances SOD2 expression (Anastasiou et al., 2006); SIRT1 negatively regulates the mammalian target of rapamycin triggering autophagy (Haigis et al., 2010); and SIRT1 activates mitochondrial biogenesis via the stress-responsive transcription factor PGC1a (Yu et al., 2009). The yeast ortholog Sir2 is necessary for the induction of mitochondrial biogenesis by 4PBA or HU in Saccharomyces cerevisiae (Cha 2010). […] However, SIRT1 can be activated by various post-translational changes. Therefore, the potential involvement of SIRT1 in the therapeutic effects of these drugs by inhibition studies was evaluated."}, "[2]": {"system": "XALD fibroblasts", "test": "Inhibition studies: ATP5B immunofluorescence of drug-induced mitochondrial biogenesis", "assay_type": "cell-based, human", "conditions": "inhibitor added before 4PBA, HU, TSA or SFN; XALD fibroblasts", "protocol": "Performed as described in Watkins et al., 1995 using 4% formaldehyde, 1% Triton X-100, primary antibody anti-ATP5B (Millipore, Billerica, Mass.) or anti-ABCD3 (Invitrogen, Carlsbad, Calif.), and secondary antibody sheep anti-mouse IgG FITC-conjugated (Santa Cruz Biotechnology, Santa Cruz, Calif.) or goat anti-rabbit IgG rhodamine-conjugated (Jackson ImmunoResearch, West Grove, Pa.).\nAntimycin A (10 ng/mL), LY294002, PD98059, RO-31-8425, SB203580, SP600125, and L-NAME were obtained from Sigma. Compound C was from EMD Biosciences (Darmstadt, Germany). Human fibroblasts were treated with each inhibitor. Then, 45-75 min later, either 4PBA, HU, TSA, or SFN was added. Cells were stained four to six days after treatment with one of the small molecules. As a control for inhibitors dissolved in DMSO, fibroblasts were treated with an equivalent amount of DMSO in the absence of inhibitor. […]\nIn FIGS. 2A-B, the JNK inhibitor SP600125 (10 μM+inh) was utilized. […] XALD fibroblasts were treated with each drug for four days with or without SP600125. (400× magnification). […] Normal human fibroblasts were treated with each of the small four molecules with or without SP600125 for six days. Quantitative in-cell western analyses were performed using anti-ATP5B."}, "[3]": {"system": "K562 cells", "test": "Flow cytometric analysis of mitochondrial mass (Mitotracker)", "assay_type": "cell-based, human", "conditions": "FIG. 1C", "protocol": "(§1) Fibroblasts (70-95% confluent) were treated with 5 mM 4PBA (1 mM for JNK inhibition studies), 600 μM HU, 200 nM TSA, or 5 μM SFN unless otherwise specified.\n(§2) K562 cells were incubated with 50 nM Mitotracker Green FM, 300 nM Mitotracker Deep Red 633 (Invitrogen), or PBS as a negative control for 15 min at 37° C. or stained with anti-Pex14 using Caltag Fix and Perm reagents (Invitrogen) following the manufacturer's instructions. Stained cells were suspended in 0.5 mL of 1% paraformaldehyde/PBS and subjected to flow cytometric analysis (FACScan machine, Becton Dickinson, Franklin Lakes, N.J.).\n(§3) K562 cells were treated with SB and HU for four to ten days. […] (n≧3 unless otherwise noted).\nTo determine whether the induction of mitochondrial biogenesis by SB or HU treatment was necessary for the induction of HbF-producing cell production, K562 cells were treated with SB or HU in the presence or absence of AA. […] After two to four days of drug treatment with or without AA, mitochondrial mass was measured using Mitotracker, a mitochondrial stain. Fold change (drug treated/control) is shown. […] After four days of drug treatment with or without AA, cells were stained with DAF. The relative number of cells producing HbF (DAF stained cells) were plotted. […] After eight to ten days of drug treatment, peroxisome proliferation was measured using an antibody against the peroxisomal membrane protein, PEX14 and a FITC-labeled secondary antibody. Fold change (drug treated/control) is shown. In FIGS. 1C, 1D, and 1E, the * represents a statistically significant increase in a measurement between drug treated and control samples or a statistically significant decrease in a measurement between drug treated and drug treated samples in the presence of AA (p≦0.05) (Bars=SEM). This finding indicates dependence of the beneficial effect (i.e., elevated HbF levels) on induced mitochondrial biogenesis. Thus, the therapeutic effects observed in SCD may involve the pharmacological induction of mitochondrial biogenesis by SB or HU. […]"}, "[4]": {"system": "K562 cells", "test": "HbF-producing cell production (DAF staining)", "assay_type": "cell-based, human", "conditions": "FIG. 1D", "protocol": "as §1\nK562 cells were suspended in 1.1 mL media and 240 μL of DAF [working solution 50 μL 2,7diaminofluorene (DAF) stock (50 μg DAF in 5 mL 90% glacial acetic acid), 50 μL 30% hydrogen peroxide, and 2.5 ml 200 mM Tris-HCl, pH 7.0]. DAF stained hemoglobinized cells were scored using a hemocytometer.\nas §3\nTo determine whether the induction of mitochondrial biogenesis by SB or HU treatment was necessary for the induction of HbF-producing cell production, K562 cells were treated with SB or HU in the presence or absence of AA. […] After two to four days of drug treatment with or without AA, mitochondrial mass was measured using Mitotracker, a mitochondrial stain. Fold change (drug treated/control) is shown. […] After four days of drug treatment with or without AA, cells were stained with DAF. The relative number of cells producing HbF (DAF stained cells) were plotted. […] After eight to ten days of drug treatment, peroxisome proliferation was measured using an antibody against the peroxisomal membrane protein, PEX14 and a FITC-labeled secondary antibody. Fold change (drug treated/control) is shown. In FIGS. 1C, 1D, and 1E, the * represents a statistically significant increase in a measurement between drug treated and control samples or a statistically significant decrease in a measurement between drug treated and drug treated samples in the presence of AA (p≦0.05) (Bars=SEM). This finding indicates dependence of the beneficial effect (i.e., elevated HbF levels) on induced mitochondrial biogenesis. Thus, the therapeutic effects observed in SCD may involve the pharmacological induction of mitochondrial biogenesis by SB or HU.\nK562 cells were treated for four days with HU in the presence or absence of SP600125 or PBS as a control (CON). […]"}, "[5]": {"system": "K562 cells", "test": "Flow cytometric analysis of peroxisome proliferation (PEX14)", "assay_type": "cell-based, human", "conditions": "eight to ten days, FIG. 1E", "protocol": "as §1, §2, §3\nTo determine whether the induction of mitochondrial biogenesis by SB or HU treatment was necessary for the induction of HbF-producing cell production, K562 cells were treated with SB or HU in the presence or absence of AA. […] After two to four days of drug treatment with or without AA, mitochondrial mass was measured using Mitotracker, a mitochondrial stain. Fold change (drug treated/control) is shown. […] After four days of drug treatment with or without AA, cells were stained with DAF. […] After eight to ten days of drug treatment, peroxisome proliferation was measured using an antibody against the peroxisomal membrane protein, PEX14 and a FITC-labeled secondary antibody. […]"}, "[6]": {"system": "HbF", "conditions": "Keefer et al., 2006; cited from earlier work"}, "[7]": {"system": "XALD fibroblasts", "test": "Fatty acid β-oxidation of 1-14C-labeled fatty acids", "assay_type": "cell-based, human", "protocol": "Fatty acid β-oxidation activity in XALD fibroblasts was determined by measuring their capacity to degrade 1-^14C-labeled fatty acids to water-soluble products as described in McGuiness et al., 2003.\n4PBA-induced peroxisomal VLCFA β-oxidation (degradation) is dependent on mitochondrial long chain fatty acid (LCFA) β-oxidation (McGuinness et al., 2003). […] Antimycin A (AA) is a cytochrome c reductase inhibitor that inhibits the mitochondrial electron transport chain, mitochondrial biogenesis, and thus, cellular respiration (Ranganathan et al., 2009). […] XALD fibroblasts were treated with 4PBA in the presence or absence of antimycin A (AA), a cytochrome c reductase inhibitor, for five days and β-oxidation levels of LCFA (C16:0) and VLCFA (C24:0) levels were measured."}, "[8]": {"conditions": "K562 cells, 1.2 mM SB or 100 μM HU"}}, "data": [{"compound": "Cn1cnc(N)c2ncnc1-2", "note": "[3-methyladenine]", "values": [{"measurement": "increase in FL-SMN transcript levels in SFN-treated spinal muscular atrophy fibroblasts", "setting": "[1]", "result": "prevented"}]}, {"compound": "COC(=O)[C@@H](N)CCCNC(=N)N[N+](=O)[O-]", "note": "[L-NAME]", "values": [{"measurement": "Inhibits Mitochondrial Biogenesis?", "setting": "[2]", "result": "no"}]}, {"compound": "COc1cccc(-c2cc(=O)c3ccccc3o2)c1N", "note": "[PD98059]", "values": [{"measurement": "Inhibits Mitochondrial Biogenesis?", "setting": "[2]", "result": "no"}]}, {"compound": "Cn1cc(C2=C(c3c4n(c5ccccc35)CCC(CN)C4)C(=O)NC2=O)c2ccccc21", "note": "(stereo not drawn) [RO-21-8425]", "values": [{"measurement": "Inhibits Mitochondrial Biogenesis?", "setting": "[2]", "result": "no"}]}, {"compound": "C[S+]([O-])c1ccc(-c2nc(-c3ccncc3)c(-c3ccc(F)cc3)[nH]2)cc1", "note": "(stereo not drawn) [SB203580]", "values": [{"measurement": "Inhibits Mitochondrial Biogenesis?", "setting": "[2]", "result": "no"}]}, {"compound": "CCCC(=O)[O-].[Na+]", "note": "[SB, Sodium butyrate]", "values": [{"measurement": "mitochondrial mass", "setting": "[3]; [8]", "result": "significantly increased"}, {"measurement": "number of HbF-producing cells", "setting": "[4]; [8]", "result": "significantly increased"}, {"measurement": "peroxisomal proliferation", "setting": "[5]", "result": "significantly increased"}, {"measurement": "HbF levels", "setting": "[6]", "result": "increased"}]}, {"compound": "N#CC(=C(/N)Sc1ccccc1N)/C(C#N)=C(\\N)Sc1ccccc1N", "note": "[U0126]", "values": [{"measurement": "Inhibits Mitochondrial Biogenesis?", "setting": "[2]", "result": "no"}]}, {"compound": "COc1cc(C[C@H]2C(=O)OC[C@@H]2Cc2ccc(OC)c(OC)c2)ccc1O", "note": "[arctigenin]", "values": [{"measurement": "Inhibits Mitochondrial Biogenesis?", "setting": "[2]", "result": "no"}]}, {"compound": "c1cc(-c2cnn3cc(-c4ccc(OCCN5CCCCC5)cc4)cnc23)ccn1", "note": "[compound C]", "values": [{"measurement": "Inhibits Mitochondrial Biogenesis?", "setting": "[2]", "result": "no"}]}, {"compound": "CC(NC(=O)c1ccccc1/N=C/c1c(O)ccc2ccccc12)c1ccccc1", "note": "(stereo not drawn) [sirtinol]", "values": [{"measurement": "increase in FL-SMN transcript levels in SFN-treated spinal muscular atrophy fibroblasts", "setting": "[1]", "result": "prevented"}]}, {"compound": "Antimycin A [AA]", "values": [{"measurement": "induction of peroxisomal VLCFA β-oxidation", "setting": "[7]; 4PBA in the presence of AA", "result": "blocked"}, {"measurement": "4PBA-induction of mitochondrial LCFA β-oxidation", "setting": "[7]; in the presence of AA (10 ng/mL)", "result": "inhibited"}, {"measurement": "induction of mitochondrial biogenesis by SB or HU treatment", "setting": "[3]; effect of co-treatment with AA", "result": "significantly inhibited"}, {"measurement": "induction of HbF-producing cells by SB or HU treatment", "setting": "[4]; effect of co-treatment with AA", "result": "significantly inhibited"}, {"measurement": "increase in FL-SMN transcript levels in SFN-treated spinal muscular atrophy fibroblasts", "setting": "[1]", "result": "prevented"}]}]}
